According to article PMC3569154 (Clinical Psychopharmacology and Neuroscience, 2012):
pIC50: −log10 of the molar value.

Legend:
[1] = target: T1, [^3H]glycine uptake sites (GlyT-1) (Mus musculus, UniProt P28571); test: Inhibition of [^3H]glycine uptake in mouse brain homogenates; assay type: biochemical
T1 sequence (P28571 1-692): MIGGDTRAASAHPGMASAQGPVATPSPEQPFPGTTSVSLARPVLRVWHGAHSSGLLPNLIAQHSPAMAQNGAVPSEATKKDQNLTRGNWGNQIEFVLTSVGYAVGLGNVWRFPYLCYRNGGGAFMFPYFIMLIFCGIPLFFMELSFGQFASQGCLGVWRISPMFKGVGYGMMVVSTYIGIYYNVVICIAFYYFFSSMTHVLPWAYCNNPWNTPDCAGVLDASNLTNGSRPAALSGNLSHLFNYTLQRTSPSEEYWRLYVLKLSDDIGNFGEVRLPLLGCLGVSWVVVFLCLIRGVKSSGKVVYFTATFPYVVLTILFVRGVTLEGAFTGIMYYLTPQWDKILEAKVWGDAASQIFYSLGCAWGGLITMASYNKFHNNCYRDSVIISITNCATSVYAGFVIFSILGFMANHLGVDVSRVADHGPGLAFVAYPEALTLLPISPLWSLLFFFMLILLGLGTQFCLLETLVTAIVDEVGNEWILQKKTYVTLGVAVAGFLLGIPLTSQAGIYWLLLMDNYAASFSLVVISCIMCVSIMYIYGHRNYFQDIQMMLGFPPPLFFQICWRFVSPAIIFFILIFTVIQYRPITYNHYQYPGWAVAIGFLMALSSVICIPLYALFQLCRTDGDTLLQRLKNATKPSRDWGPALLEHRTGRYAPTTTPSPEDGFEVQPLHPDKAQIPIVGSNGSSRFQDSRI

[2] = test system: 28-standard receptor-binding profile; details: 1µM; cited from earlier work

CN1CCCC[C@@H]1[C@@H](NC(=O)c1nccc(C(F)(F)F)c1Cl)c1ccsc1 [CHIBA-3007, 3-chloro-N-((S)-((R)-1-methylpiperidin-2-yl)(thiophen-3-yl)methyl)-4-(trifluoromethyl)picolinamide]
pIC50 [1]: 8.57
inhibition in 28-standard receptor-binding profile [2]: < 50%
